Reference: patent US8106038B2, “Method for reducing or preventing PDT related inflammation” (QLT Inc., priority 2001, dated 2012)

What was measured:
macrophages = settings: rabbit, in vivo
Method: Tetracaine HCI (0.5%) was used for topical anesthesia.
All eyes were enucleated immediately after euthanasia. […] Serial cryosections were cut and stored at −70° C. Non-treated eyes were used for control. Cryosections were stained with H&E and immunohistochemical staining.

MHC-II positive cells = settings: rabbit, in vivo
Method: (§1) Twelve pigmented rabbits weighing between 2 and 4 kg were used. Animals were anesthetized with ketamine HCI (40 mg/kg) and xylocaine (5 mg/kg). Tetracaine HCI (0.5%) was used for topical anesthesia. Tropicamide (1%) and phenylephrine (2.5%) eye drops were used for pupillary dilation. Euthanasia was accomplished with sodium pentobarbital (150 mg/kg) intracardiac injection. Two rabbits were sacrificed at day 2, 7, 14, 28, 42 and 56 following PDT.
(§2) Ten rabbits were injected intravenously with 2 mg/kg BPD-MA, and 689 nm laser light at 600 mW/cm^2 was successively applied on three 1.25-mm spot in one eye according to the following schedule:
(§3) All eyes were enucleated immediately after euthanasia. After the cornea, lens, and vitreous were removed, experimental area was delineated with sharp cuts. Tissue was placed in freezing compound (OCT) and frozen in liquid nitrogen. Serial cryosections were cut and stored at −70° C. Non-treated eyes were used for control. Cryosections were stained with H&E and immunohistochemical staining.
(§4) Frozen sections were thawed and fixed with fresh acetone for 5 minutes. Endogenous peroxide activity was blocked with 0.3% hydrogen peroxide in phosphate buffered saline (PBS). After blocked with PBS and 1% bovine serum albumin (BSA), the specific primary antibodies were diluted in PBS with 1% BSA and incubated at room temperature for an hour. […]

CD8 positive cells = settings: rabbit, in vivo
Method: as §1, §2, §3, §4

normal rabbit choroid [1] = settings: in vivo
Method: as §1, §2, §3

[2] = system: CD4, CD8, Macrophage and MHC-II positive cells; assay: Immunohistochemistry of inflammatory cells after PDT (combined statements)
Method: as §1, §2, §3
Frozen sections were thawed and fixed with fresh acetone for 5 minutes. Endogenous peroxide activity was blocked with 0.3% hydrogen peroxide in phosphate buffered saline (PBS). After blocked with PBS and 1% bovine serum albumin (BSA), the specific primary antibodies were diluted in PBS with 1% BSA and incubated at room temperature for an hour. Detection was achieved using ABC Elite detection kit (DAKO) with aminoethylcarbizole as the chromogen. Sections were counterstained with light Mayers' hematoxylin, washed with tap water, and mounted in water soluble mounting medium (Biomeda, Catalogue no. MO1).
(§5) Normal-dose PDT was performed as phase 1 in three rabbits.
(§6) Immediately after each individual light treatment with normal-dose PDT, 5 mm Spot concentric with the 1.25 mm spot was exposed to 15 J/cm^2 (25 sec) in three rabbits. FA and fundus photography was taken as phase 1, and animals were sacrificed for immunohistochemical study at day 28 following PDT.

CD4 positive cells = settings: rabbit, in vivo
Method: as §1, §2, §3, §4

normal rabbit choroid [3] = settings: in vivo; remark: listed apart in the source
Method: as §1, §2
Following PDT, animals were kept in a dark room overnight.
Fluorescein angiography (FA) and fundus photography were performed as 2 baseline before PDT, the day after PDT, weekly, and at the day of sacrifice.
as §5, §6

9-methyl (I) and 13-methyl (II) trans-(±)-18-ethenyl-4,4a-dihydro-3,4-bis(methoxycarbonyl)-4a,8,14,19-tetramethyl-23H,25H-benzo[b]porphine-9,13-dipropanoate [BPD-MA]
Macrophage positive cells after the additional low-dose PDT (macrophages): slightly increased | change of macrophages versus control (macrophages): statistically significantly increased | change of MHC-II positive cells versus control (MHC-II positive cells): statistically significantly increased | change of CD8 positive cells versus control (CD8 positive cells): statistically significantly increased | dependence of histologic damage on dose of light (normal rabbit choroid [1]): more severe with the higher dose of light | histologic damage of RPE layer, photoreceptor layer, outer nuclear and plexiform layer (normal rabbit choroid [1]): damaged in all cases | histologic damage of inner nuclear layer (normal rabbit choroid [1]): a little damages but generally preserved well | state of choriocapillaries and larger choroidal vessels after PDT (normal rabbit choroid [1]): collapsed after PDT, but not the larger choroidal vessels | time for RPE layer to begin to become a monolayer again (normal rabbit choroid [1]): in two weeks | persistence of inflammatory reactions after therapeutic PDT ([2]; normal rabbit choroid): ≤ 56 days | change of CD4, CD8, Macrophage and MHC-II positive cells compared to control ([2]; rabbit, Phase 2, 4 weeks after low-dose PDT): slightly increased | effect of additional concentric large diameter low-dose PDT on the increase in CD4, CD8, Macrophage and MHC-II positive cells after normal-dose PDT ([2]; rabbit, Phase 3, day 28): suppressed the increase | effect of low dose light following therapeutic PDT on inflammation ([2]; rabbit, low dose light 15 J/cm^2): effectively inhibited the increase in inflammation | change of CD4 positive cells in treated area (CD4 positive cells): no significant increase | change of CD4 positive cells versus control (CD4 positive cells): statistically significantly increased | neovascular leakage on fluorescein angiography (normal rabbit choroid [3]): no neovascular leakages
